In patent publication US20170368034A1, “THIOTRIAZOLE COMPOUND AND ITS USE IN PARASITIC PROTOZOAL INFECTIONS” (GlaxoSmithKline Intellectual Property Development Limited, priority 2014, published 2017):
≈ marks a conversion by molar mass, not a printed value. Read-outs that look alike come from different tables or passages of the source.

How the values were obtained:
[1] = tested on: P. falciparum; test: P. falciparum in vivo efficacy assay (P. falciparum mouse model); set-up: species or system Plasmodium falciparum; details: for AUCED90: area under the concentration-time curve at ED90, P. falciparum mouse model; for ED90: dose that eradicates 90 per cent of parasitemia, NOD-scid IL2R_null mice engrafted with human erythrocytes
Protocol: P. Falciparum In Vivo Efficacy Assay.
Antimalarial in vivo efficacy was determined using the P. falciparum mouse model following the procedure described in: Jimenez-Diaz, M. B., Mulet, T., Viera, S., Gómez, V., Garuti, H., Ibañez, J., Alvarez-Doval, A., Shlutz, D. L., Martinez, A., Improved Murine Model Of Malaria Using Plasmodium falciparum (Competent Strains and Non-Myelodepleted NOD-scid IL2R_null
Mice Engrafted with Human Erythrocytes) Antimicrob. Agents Chemother 2009, 53 (10), 4533-4536

[2] = Equilibrium solubility assessment in biorelevant media; type: physicochemical; details: thermodynamic from solid, room temperature
Protocol: Compound's equilibrium solubility was measured at 4 h room temperature in four biologically relevant fluids: Fasted State-(Simulated Intestinal Fluid (FaSSIF), Fed State Simulated IntestinalFluid (FeSSIF), Simulated Gastric Fluid (SGF) and Phosphate Buffered Saline (PBS).
Organic solvents of HPLC grade were used. Ultra pure water (Milli-Q grade) was used. Buffers were prepared with ultra pure water and filtered using 0.45 μ nylon filters.
Determination of equilibrium solubility (assuming chemical stability in the desired solvent is not a problem).
a) 1 mg of solid compound was weighted in one 4 mL glass vial and 1 mL of the corresponding medium freshly prepared (SGF, FaSSIF, FeSSIF or PBS) was added. All these samples were prepared by duplicate.
b) The samples were stirred (roller mixer) for 4 hr at room temperature. If required, additional solid compound (0.1 mg) was added to maintain excess of it (saturated solutions).
c) After 4 hours, the samples were centrifuged (10000 rpm, 10 min.) and the supernatants were transfer to an HPLC vial and analysed by LC-MS (previous dilution with mobile phase when needed).
d) The pH of the final solution in each sample was measured with a pH-meter (WTW pH330i and a pH-electrode Sentix 41).
All supernatants were analysed by LC-MS. Quantification of those samples was carried out against calibration curves obtained from 1 mg/mL DMSO (Aldrich cat. ref.: 27685-5) stock solutions, by dilution with the mobile phase used in the chromatography. Depending on the solubility range, U.V. (1 μg/mL to 100 μg/mL) or MS (1 μg/mL to 1 ng/mL) detector were used in the quantification.
The analysis of all LC-MS data was performed with MassLynx 3.4 software and Analyst 1.4.2. Statistical and graphic analysis of data was performed using Microsoft Excel. The concentration (μM) and solubility (μg/ml) for each compound was calculated using the peak areas from the sample and those from the calibration curve.

[3] = tested on: P. falciparum infected erythrocytes; test: P. falciparum growth inhibition assay ([3H]hypoxanthine incorporation); type: cell-based; details: Plasmodium falciparum, Erythrocyte, 0.5% parasitemia (ring stage), 2% hematocrit, 48 h total incubation, read-out: PflC50
Protocol: P. falciparum Growth Inhibition Assay. The sensitivity of P. falciparum infected erythrocytes to the compound is determined in triplicate using the [^3H]hypoxanthine incorporation method with an inoculum of 0.5% parasitemia (ring stage) and 2% hematocrit. The parasites were grown in RPMI 1640, 25 mM HEPES and supplemented with […]. Plates are incubated at 37° C., 5% CO2, 5% O2, 90% N2. After 24 h of incubation, [3H]hypoxanthine is added and plates are incubated for another 24 h. After that period, plates are harvested on a glass fiber filter using a TOMTEC Cell harvester 96. Filters are dried and melt on scintillator sheets and the bound radioactivity is quantified by use of a Wallac Microbeta Trilux (Model 1450 LS-Perkin Elmer). IC50s are determined using Grafit 5 program (Grafit program; Erithacus Software, Horley, Surrey, United Kingdom).

[4] = p698 and Table 2 p699; cited from earlier work
[5] = FaSSIF (fasted state simulated intestinal fluid), fassif, Fasted state simulated intestinal fluid, read-out: FaSSIF solubility
[6] = FeSSIF (fed state simulated intestinal fluid), fessif, Fed state simulated intestinal fluid, read-out: FeSSIF solubility
[7] = PBS (phosphate buffered saline), aqueous buffer, Phosphate buffered saline, read-out: PBS solubility
[8] = SGF (simulated gastric fluid), Simulated gastric fluid, read-out: SGF solubility

C[C@@H](Sc1nc(-c2c(Cl)cncc2Cl)n[nH]1)C(=O)c1c[nH]c2ccccc12 [drawing 24]
AUCED90 [1]: 0.17 μg.h.ml-1day-1
ED90 [1]: 2.2 mg/kg

Cc1[nH]c2ccccc2c1C(=O)C(C)Sc1nnc(-c2ccccc2Br)[nH]1 (stereo not drawn) [drawing 25]
solubility at 4 h [2, 5]: 37 µg/mL (≈ 83.8 µM)
solubility at 4 h [2, 6]: 181 µg/mL (≈ 410 µM)
solubility at 4 h [2, 7]: < 0.1 µg/mL
solubility at 4 h [2, 8]: < 0.1 µg/mL

C[C@@H](Sc1nc(-c2c(Cl)cncc2Cl)n[nH]1)C(=O)c1c[nH]c2ccccc12 [drawing 21]
IC50 [3]: 19 to 53 nM

CC(Sc1nc(-c2c(Cl)cncc2Cl)n[nH]1)C(=O)c1c[nH]c2ccccc12 (stereo not drawn) [drawing 20]
IC50 [3]: 52 nM

O=C(CSc1nc(-c2ccncc2)n[nH]1)c1c[nH]c2ccccc12 [drawing 18]
IC50 [3]: > 5000 nM

O=C(CSc1nc(-c2ccncc2)n[nH]1)c1c[nH]c2ccccc12 [Compound 32]
activity in the assays of Shah et al. [4]: inactive

Cc1[nH]c2ccccc2c1C(=O)C(C)Sc1nnc(-c2ccccc2Br)[nH]1 (stereo not drawn) [drawing 19]
IC50 [3]: 44 to 60 nM

C[C@@H](Sc1nc(-c2c(Cl)cncc2Cl)n[nH]1)C(=O)c1c[nH]c2ccccc12 [drawing 27]
solubility at 4 h [2, 5]: 216 µg/mL (≈ 516 µM)
solubility at 4 h [2, 6]: 578 to 675 µg/mL (≈ 1380 to 1610 µM)
solubility at 4 h [2, 7]: 169 to 289 µg/mL (≈ 404 to 691 µM)
solubility at 4 h [2, 8]: 15 to 76 µg/mL (≈ 35.9 to 182 µM)

Cc1[nH]c2ccccc2c1C(=O)C(C)Sc1nnc(-c2ccccc2Br)[nH]1 (stereo not drawn) [drawing 22]
AUCED90 [1]: < 0.05 μg.h.ml-1day-1
ED90 [1]: 7.31 mg/kg

CC(Sc1nc(-c2c(Cl)cncc2Cl)n[nH]1)C(=O)c1c[nH]c2ccccc12 (stereo not drawn) [drawing 26]
solubility at 4 h [2, 5]: 168 µg/mL (≈ 402 µM)
